Legend:
T protein = T protein (Homo sapiens, UniProt P48728); conditions: cited from earlier work
[1] = biological target: T1, glycine cleavage system (GCS) (Homo sapiens, UniProt P23378); conditions: cited from earlier work
T1 sequence (P23378 36-1020): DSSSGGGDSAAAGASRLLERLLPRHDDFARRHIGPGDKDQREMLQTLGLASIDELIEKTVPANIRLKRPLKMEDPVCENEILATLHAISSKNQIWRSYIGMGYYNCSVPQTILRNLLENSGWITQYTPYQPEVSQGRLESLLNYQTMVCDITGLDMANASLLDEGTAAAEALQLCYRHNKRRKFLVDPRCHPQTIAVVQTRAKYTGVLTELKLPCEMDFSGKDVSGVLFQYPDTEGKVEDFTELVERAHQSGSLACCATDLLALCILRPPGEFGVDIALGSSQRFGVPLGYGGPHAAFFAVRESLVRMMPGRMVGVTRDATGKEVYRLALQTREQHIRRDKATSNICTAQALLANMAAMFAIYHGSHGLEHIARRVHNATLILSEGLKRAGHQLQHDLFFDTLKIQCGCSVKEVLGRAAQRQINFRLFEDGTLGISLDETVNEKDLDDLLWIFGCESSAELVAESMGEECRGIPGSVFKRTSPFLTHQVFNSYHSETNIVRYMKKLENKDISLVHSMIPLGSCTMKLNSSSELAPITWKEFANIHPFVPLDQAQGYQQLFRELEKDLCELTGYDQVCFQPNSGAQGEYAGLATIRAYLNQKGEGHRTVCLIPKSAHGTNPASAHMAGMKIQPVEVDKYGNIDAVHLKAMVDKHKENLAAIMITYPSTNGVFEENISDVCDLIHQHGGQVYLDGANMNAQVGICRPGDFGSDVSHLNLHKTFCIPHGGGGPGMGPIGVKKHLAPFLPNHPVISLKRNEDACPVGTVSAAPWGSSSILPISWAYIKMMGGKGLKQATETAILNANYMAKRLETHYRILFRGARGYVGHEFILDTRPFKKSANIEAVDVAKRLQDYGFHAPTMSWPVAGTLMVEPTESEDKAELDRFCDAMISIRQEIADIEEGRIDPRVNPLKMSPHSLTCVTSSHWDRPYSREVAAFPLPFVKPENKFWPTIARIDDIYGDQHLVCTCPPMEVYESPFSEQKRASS

P protein = conditions: cited from earlier work
[2] = system: GLDC-knockdown-sensitive cells; test: Cysteamine treatment, cell viability by ATP assay; type: cell-based; conditions: 1 mM, 4 days
Description: FIGS. 3A-3C. GLDC shRNA sensitive lines, but not insensitive lines, are also sensitive to pharmacological inhibition of the GCS, and to shRNA knockdown of another GCS component (GCSH). (A) Various cell lines were treated with 1 mM cysteamine for 4 days. […] (C) Various cells lines were infected with GS1, GS2, GS3, or GS4 shRNAs for 6 days. Cell viability was measured and data from multiple experiments is shown ±S.D. The blue line indicates cell viability for each cell line when infected with control (GFP) shRNA, which was set as 100%. Thus, data for each cell line is shown as a % relative to viability when infected with shGFP. For (A) and (C), asterisk indicates a statistically significant decrease in cell viability following cysteamine treatment relative to untreated (p<0.05). Red font indicates GLDC shRNA-sensitive lines, and blue font indicates insensitive lines.
We assessed the effect of treatment with cysteamine, an inhibitor of the GCS (9) on a number of the tumor cell lines that had been examined in the experiments described in Example 3. Cells were treated with cysteamine (1 mM) for 4 days, and cell viability was then assessed using an ATP assay.

[3] = system: glycine cleavage activity in the liver; conditions: administration to rats; cited from earlier work
[4] = patients with NKH; cited from earlier work

T protein, sequence (P48728 29-403): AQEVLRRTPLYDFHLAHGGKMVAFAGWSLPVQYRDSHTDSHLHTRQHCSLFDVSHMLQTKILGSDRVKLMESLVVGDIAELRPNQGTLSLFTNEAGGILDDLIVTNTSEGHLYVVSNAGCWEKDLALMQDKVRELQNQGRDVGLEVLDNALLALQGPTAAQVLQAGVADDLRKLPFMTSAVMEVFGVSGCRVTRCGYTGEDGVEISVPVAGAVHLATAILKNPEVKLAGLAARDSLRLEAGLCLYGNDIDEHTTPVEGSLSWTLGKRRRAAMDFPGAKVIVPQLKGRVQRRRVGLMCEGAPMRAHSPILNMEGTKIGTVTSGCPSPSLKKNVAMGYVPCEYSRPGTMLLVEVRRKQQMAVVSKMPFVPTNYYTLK

CN1c2c(nc(N)[nH]c2=O)NCC1CNc1ccc(C(=O)N[C@@H](CCC(=O)O)C(=O)O)cc1 (stereo partly drawn) [5-methyltetrahydrofolate]
inhibition of T protein (T protein): inhibits T protein

N#CCN [aminoacetonitrile]
inhibition of the GCS [1]: reported to inhibit the GCS

NOCC(=O)O [carboxymethoxylamine]
inhibition of P protein (P protein): reported to inhibit P protein

NCCS [cysteamine, 2-aminoethanethiol]
inhibition of the GCS [1]: known inhibitor of the GCS
cell viability (ATP assay) [2]: impaired viability

C#CCN [propargylamine, 3-Amino-1-propyne]
inhibition of the GCS [1]: reported to inhibit the GCS

CCCC(CCC)C(=O)O [valproic acid, 2-propylpentanoic acid]
glycine cleavage activity in the liver [3]: inhibit glycine cleavage activity in the liver
P protein activity in vitro (P protein; in vitro): reduced
seizure frequency [4]: increase in seizure frequency

Source: patent US9493775B2, “Inhibition of the glycine cleavage system for treatment of cancer” (Whitehead Institute for Biomedical Research, priority 2012, dated 2016)
